US7977322B2 (Vertex Pharmaceuticals Incorporated, priority 2004, dated 2011)

Target: T1, ΔF508-CFTR (Homo sapiens, UniProt P13569, DEL508-508)
T1 construct: expressed in transfected cells
Assay: Membrane potential optical (FRET/VIPR) assay, identification of correction compounds
Assay type: cell-based
Details: Table 3, assay not given; for Emax: read-out: % Activity / % Efficacy (relative efficacy)
Method in brief: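 NIH3T3 mouse fibroblasts stably expressing ΔF508-CFTR were exposed to compound for 16 h at 37° C in serum-free medium, then loaded with DiSBAC2(3)/CC2-DMPE. After addition of 10 μM forskolin plus 20 μM genistein in Cl⁻-free gluconate bath (pH 7.4), depolarization from Cl⁻ efflux was read by FRET (VIPR II).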

T1 sequence (P13569 with tags, fused parts or gaps DEL508-508): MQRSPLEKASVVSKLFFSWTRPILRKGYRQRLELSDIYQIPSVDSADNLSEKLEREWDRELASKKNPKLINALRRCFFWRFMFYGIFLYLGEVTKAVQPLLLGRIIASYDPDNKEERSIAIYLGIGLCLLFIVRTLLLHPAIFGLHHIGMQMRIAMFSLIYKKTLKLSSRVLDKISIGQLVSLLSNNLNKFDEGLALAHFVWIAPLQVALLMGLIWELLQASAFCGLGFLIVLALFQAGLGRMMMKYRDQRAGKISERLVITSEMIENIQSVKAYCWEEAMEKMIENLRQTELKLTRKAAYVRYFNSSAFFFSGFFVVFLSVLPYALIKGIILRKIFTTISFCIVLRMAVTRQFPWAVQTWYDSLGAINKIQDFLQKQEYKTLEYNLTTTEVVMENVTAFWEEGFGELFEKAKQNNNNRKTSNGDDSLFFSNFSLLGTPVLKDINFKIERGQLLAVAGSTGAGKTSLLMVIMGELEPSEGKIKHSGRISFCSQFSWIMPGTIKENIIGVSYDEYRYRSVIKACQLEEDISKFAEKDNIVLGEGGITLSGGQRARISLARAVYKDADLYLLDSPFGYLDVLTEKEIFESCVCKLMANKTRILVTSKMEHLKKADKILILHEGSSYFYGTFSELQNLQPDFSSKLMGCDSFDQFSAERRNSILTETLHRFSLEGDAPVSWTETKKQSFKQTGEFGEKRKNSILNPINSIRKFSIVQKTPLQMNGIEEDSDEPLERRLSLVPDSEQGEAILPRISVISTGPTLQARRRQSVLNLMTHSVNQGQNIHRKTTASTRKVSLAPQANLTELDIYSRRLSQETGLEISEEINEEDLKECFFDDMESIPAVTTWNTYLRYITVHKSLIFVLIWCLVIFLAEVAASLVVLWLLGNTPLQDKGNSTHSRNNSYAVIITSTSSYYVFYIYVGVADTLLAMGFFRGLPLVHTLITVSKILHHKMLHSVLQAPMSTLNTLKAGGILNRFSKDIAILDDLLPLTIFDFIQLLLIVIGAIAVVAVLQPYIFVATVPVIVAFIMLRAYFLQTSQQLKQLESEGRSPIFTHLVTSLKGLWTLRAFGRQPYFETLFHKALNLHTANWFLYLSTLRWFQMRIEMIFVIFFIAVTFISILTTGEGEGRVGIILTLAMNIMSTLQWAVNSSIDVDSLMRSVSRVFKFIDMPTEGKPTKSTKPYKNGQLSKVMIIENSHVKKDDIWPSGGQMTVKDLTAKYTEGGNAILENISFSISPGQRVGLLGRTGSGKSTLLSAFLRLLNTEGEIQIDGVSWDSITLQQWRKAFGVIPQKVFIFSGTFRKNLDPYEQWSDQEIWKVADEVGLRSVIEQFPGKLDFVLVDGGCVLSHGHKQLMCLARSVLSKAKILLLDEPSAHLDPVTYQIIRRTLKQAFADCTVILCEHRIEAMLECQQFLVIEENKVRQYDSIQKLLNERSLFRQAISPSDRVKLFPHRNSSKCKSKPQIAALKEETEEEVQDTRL

| Structure (SMILES) | EC50 [µM] | Emax [%] |
| --- | --- | --- |
| CCC(c1cnc(NC(=O)C2(c3ccc4c(c3)OCO4)CC2)s1)N1CCCCC1 (stereo not shown) [Example 403] | 10 to 25 | > 100 |
| CCC(c1cnc(NC(=O)C2(c3ccc4c(c3)OCO4)CC2)s1)N1CCC[C@H]1COC (stereo partly shown) [Example 404] | 10 to 25 | > 100 |
| CN1CCCC1CCNC(c1cnc(NC(=O)C2(c3ccc4c(c3)OCO4)CC2)s1)c1ccccc1Cl (stereo not shown) [Example 405] | < 10 | 25 to 100 |
| O=C(Nc1ncc(C(NCCN2CCCC2)c2ccccc2Cl)s1)C1(c2ccc3c(c2)OCO3)CC1 (stereo not shown) [Example 406] | < 10 | 25 to 100 |
| O=C1NOC[C@@H]1NC(c1cnc(NC(=O)C2(c3ccc4c(c3)OCO4)CC2)s1)c1ccccc1Cl (stereo partly shown) [Example 407] | 10 to 25 | 25 to 100 |
| O=C(Nc1ncc(C(NCCCn2ccnc2)c2ccccc2Cl)s1)C1(c2ccc3c(c2)OCO3)CC1 (stereo not shown) [Example 408] | < 10 | 25 to 100 |
| O=C(Nc1ncc(C(NCC2CCCCC2)c2ccccc2Cl)s1)C1(c2ccc3c(c2)OCO3)CC1 (stereo not shown) [Example 409] | < 10 | > 100 |
| CCN(CCO)C(c1cnc(NC(=O)C2(c3ccc4c(c3)OCO4)CC2)s1)c1ccccc1Cl (stereo not shown) [Example 410] | < 10 | > 100 |
| O=C(Nc1ncc(C(NC2CCCCC2)c2ccccc2Cl)s1)C1(c2ccc3c(c2)OCO3)CC1 (stereo not shown) [Example 411] | < 10 | > 100 |
| O=C(Nc1ncc(C(NCc2ccco2)c2ccccc2Cl)s1)C1(c2ccc3c(c2)OCO3)CC1 (stereo not shown) [Example 412] | < 10 | > 100 |
| CN(C1CCCCC1)C(c1cnc(NC(=O)C2(c3ccc4c(c3)OCO4)CC2)s1)c1ccccc1Cl (stereo not shown) [Example 413] | < 10 | > 100 |
| O=C(Nc1ncc(C(NC2CCCC2)c2ccccc2Cl)s1)C1(c2ccc3c(c2)OCO3)CC1 (stereo not shown) [Example 414] | < 10 | > 100 |
| O=C(Nc1ncc(C(NC2CC2)c2ccccc2Cl)s1)C1(c2ccc3c(c2)OCO3)CC1 (stereo not shown) [Example 415] | < 10 | > 100 |
| O=C(Nc1ncc(C(NCCO)c2ccccc2Cl)s1)C1(c2ccc3c(c2)OCO3)CC1 (stereo not shown) [Example 416] | < 10 | > 100 |
| O=C(Nc1ncc(C(NC2CCC2)c2ccccc2Cl)s1)C1(c2ccc3c(c2)OCO3)CC1 (stereo not shown) [Example 417] | < 10 | > 100 |
| NC(=O)C1CCCN(C(c2cnc(NC(=O)C3(c4ccc5c(c4)OCO5)CC3)s2)c2ccccc2Cl)C1 (stereo not shown) [Example 418] | < 10 | > 100 |
| O=C(Nc1ncc(C(c2ccccc2Cl)N2CC[C@@H](O)C2)s1)C1(c2ccccc2Cl)CC1 (stereo partly shown) [Example 419] | < 10 | > 100 |
| COc1ccc(C2(C(=O)Nc3ncc(C(c4ccccc4Cl)N4CC[C@@H](O)C4)s3)CC2)cc1 (stereo partly shown) [Example 420] | < 10 | > 100 |
| O=C(Nc1ncc(C(c2ccccc2Cl)N2CC[C@@H](O)C2)s1)C1(c2ccc(F)cc2)CC1 (stereo partly shown) [Example 421] | 10 to 25 | > 100 |
| Cc1ccc(C2(C(=O)Nc3ncc(C(c4ccccc4Cl)N4CC[C@@H](O)C4)s3)CC2)cc1 (stereo partly shown) [Example 422] | < 10 | > 100 |
| O=C(Nc1ncc(C(c2ccccc2Cl)N2CC[C@@H](O)C2)s1)C1(c2ccccc2)CC1 (stereo partly shown) [Example 423] | < 10 | > 100 |

| Structure (SMILES) | EC50 [µM] | Emax [%] |
| --- | --- | --- |
| C[C@@H](CO)NC(c1cnc(NC(=O)C2(c3ccc4c(c3)OCO4)CC2)s1)c1ccccc1Cl (stereo partly shown) [Example 424] | < 10 | > 100 |
| CCOCCCNC(c1cnc(NC(=O)C2(c3ccc4c(c3)OCO4)CC2)s1)c1ccccc1Cl (stereo not shown) [Example 425] | < 10 | 25 to 100 |
| CCCN(CCO)C(c1cnc(NC(=O)C2(c3ccc4c(c3)OCO4)CC2)s1)c1ccccc1Cl (stereo not shown) [Example 426] | < 10 | 25 to 100 |
| O=C(Nc1ncc(C(NCCC2=CCCCC2)c2ccccc2Cl)s1)C1(c2ccc3c(c2)OCO3)CC1 (stereo not shown) [Example 427] | < 10 | > 100 |
| CC(C)(C)CCNC(c1cnc(NC(=O)C2(c3ccc4c(c3)OCO4)CC2)s1)c1ccccc1Cl (stereo not shown) [Example 428] | < 10 | > 100 |
| CC1(C)CC(NC(c2cnc(NC(=O)C3(c4ccc5c(c4)OCO5)CC3)s2)c2ccccc2Cl)CCO1 (stereo not shown) [Example 429] | < 10 | > 100 |
| O=C(Nc1ncc(C(NCCc2ccccn2)c2ccccc2Cl)s1)C1(c2ccc3c(c2)OCO3)CC1 (stereo not shown) [Example 430] | < 10 | > 100 |
| CC(CO)(CO)NC(c1cnc(NC(=O)C2(c3ccc4c(c3)OCO4)CC2)s1)c1ccccc1Cl (stereo not shown) [Example 431] | < 10 | > 100 |
| CCNC(c1cnc(NC(=O)C2(c3ccc4c(c3)OCO4)CC2)s1)c1ccccc1Cl (stereo not shown) [Example 432] | < 10 | > 100 |
| O=C(Nc1ncc(C(NC(CO)CO)c2ccccc2Cl)s1)C1(c2ccc3c(c2)OCO3)CC1 (stereo not shown) [Example 433] | < 10 | > 100 |
| O=C(Nc1ncc(C(NC[C@@H]2CCCO2)c2ccccc2Cl)s1)C1(c2ccc3c(c2)OCO3)CC1 (stereo partly shown) [Example 434] | < 10 | > 100 |
| CCCN(CC1CC1)C(c1cnc(NC(=O)C2(c3ccc4c(c3)OCO4)CC2)s1)c1ccccc1Cl (stereo not shown) [Example 435] | < 10 | > 100 |
| CC(=O)NCCNC(c1cnc(NC(=O)C2(c3ccc4c(c3)OCO4)CC2)s1)c1ccccc1Cl (stereo not shown) [Example 436] | < 10 | > 100 |
| C[C@@H](CO)NC(c1cnc(NC(=O)C2(c3ccc4c(c3)OCO4)CC2)s1)c1ccccc1Cl (stereo partly shown) [Example 437] | < 10 |  |
| CC(C)C[C@H](CO)NC(c1cnc(NC(=O)C2(c3ccc4c(c3)OCO4)CC2)s1)c1ccccc1Cl (stereo partly shown) [Example 438] | < 10 | > 100 |
| COCCNC(c1cnc(NC(=O)C2(c3ccc4c(c3)OCO4)CC2)s1)c1ccccc1Cl (stereo not shown) [Example 439] | < 10 | > 100 |
| CC(C)[C@H](CO)NC(c1cnc(NC(=O)C2(c3ccc4c(c3)OCO4)CC2)s1)c1ccccc1Cl (stereo partly shown) [Example 440] | < 10 | > 100 |
| O=C(Nc1ncc(C(c2ccccc2Cl)N2CC[C@@H](O)C2)s1)C1(c2cccc(C(F)(F)F)c2)CC1 (stereo partly shown) [Example 441] | < 10 | 25 to 100 |
| O=C(Nc1ncc(C(c2ccccc2Cl)N2CC[C@@H](O)C2)s1)C1(c2ccccc2C(F)(F)F)CC1 (stereo partly shown) [Example 442] | < 10 | 25 to 100 |
| COc1ccccc1C1(C(=O)Nc2ncc(C(c3ccccc3Cl)N3CC[C@@H](O)C3)s2)CC1 (stereo partly shown) [Example 443] | < 10 | 25 to 100 |
| Cc1ccccc1C1(C(=O)Nc2ncc(C(c3ccccc3Cl)N3CC[C@@H](O)C3)s2)CC1 (stereo partly shown) [Example 444] | < 10 | > 100 |

| Structure (SMILES) | EC50 [µM] | Emax [%] |
| --- | --- | --- |
| O=C(Nc1ncc(C(c2ccccc2Cl)N2CC[C@@H](O)C2)s1)C1(c2ccc(C(F)(F)F)cc2)CC1 (stereo partly shown) [Example 445] | < 10 | > 100 |
| O=C(Nc1ncc(C(c2ccccc2Cl)N2CC[C@@H](O)C2)s1)C1(c2cccc(Cl)c2)CC1 (stereo partly shown) [Example 446] | < 10 | > 100 |
| O=C(Nc1ncc(C(c2ccccc2Cl)N2CC[C@@H](O)C2)s1)C1(c2cccc(F)c2)CC1 (stereo partly shown) [Example 447] | < 10 | > 100 |
| O=C(Nc1ncc(C(c2ccccc2Cl)N2CC[C@@H](O)C2)s1)C1(c2ccccc2F)CC1 (stereo partly shown) [Example 448] | 10 to 25 | > 100 |
| O=C(Nc1ncc(C(c2ccccc2Cl)N2CC[C@@H](O)C2)s1)C1(c2ccc(Cl)cc2)CC1 (stereo partly shown) [Example 449] | < 10 | > 100 |
| Cc1cccc(C2(C(=O)Nc3ncc(C(c4ccccc4Cl)N4CC[C@@H](O)C4)s3)CC2)c1 (stereo partly shown) [Example 450] | < 10 | > 100 |
| COc1ccc(C2(C(=O)Nc3ncc(C(c4ccccc4Cl)N4CC[C@@H](O)C4)s3)CC2)cc1OC (stereo partly shown) [Example 451] | < 10 | > 100 |
| COc1cccc(C2(C(=O)Nc3ncc(C(c4ccccc4Cl)N4CC[C@@H](O)C4)s3)CC2)c1 (stereo partly shown) [Example 452] | < 10 | > 100 |
| O=C(Nc1ncc(C(Cc2ccccc2Cl)N2CCCC2)s1)C1(c2ccc3c(c2)OCO3)CC1 (stereo not shown) [Example 453] | < 10 | 25 to 100 |
| O=C(Nc1ncc(C(Cc2ccccc2Cl)N2CCCCC2)s1)C1(c2ccc3c(c2)OCO3)CC1 (stereo not shown) [Example 454] | < 10 | > 100 |
| COC[C@H]1CCCN1C(Cc1ccccc1Cl)c1cnc(NC(=O)C2(c3ccc4c(c3)OCO4)CC2)s1 (stereo partly shown) [Example 455] | < 10 | > 100 |
| COC[C@@H]1CCCN1C(Cc1ccccc1Cl)c1cnc(NC(=O)C2(c3ccc4c(c3)OCO4)CC2)s1 (stereo partly shown) [Example 456] | < 10 | > 100 |
| CN(C)C(Cc1ccccc1Cl)c1cnc(NC(=O)C2(c3ccc4c(c3)OCO4)CC2)s1 (stereo not shown) [Example 457] | < 10 | > 100 |
| NC(=O)C1CCCN1C(Cc1ccccc1Cl)c1cnc(NC(=O)C2(c3ccc4c(c3)OCO4)CC2)s1 (stereo not shown) [Example 458] | < 10 | > 100 |
| CCN(CC)C(Cc1ccccc1Cl)c1cnc(NC(=O)C2(c3ccc4c(c3)OCO4)CC2)s1 (stereo not shown) [Example 459] | < 10 | > 100 |
| O=C(Nc1ncc(C(Cc2ccccc2Cl)N2CCC(O)CC2)s1)C1(c2ccc3c(c2)OCO3)CC1 (stereo not shown) [Example 460] | < 10 | > 100 |
| O=C(Nc1ncc(C(Cc2ccccc2Cl)N2CCOCC2)s1)C1(c2ccc3c(c2)OCO3)CC1 (stereo not shown) [Example 461] | < 10 | > 100 |
| O=C(Nc1ncc(C(Cc2ccccc2Cl)N2CC[C@@H](O)C2)s1)C1(c2ccc3c(c2)OCO3)CC1 (stereo partly shown) [Example 462] | < 10 | > 100 |
| CCOc1ccccc1C(c1cnc(NC(=O)C2(c3ccc4c(c3)OCO4)CC2)s1)N1CCCC1 (stereo not shown) [Example 463] | < 10 | 25 to 100 |
